Measurements as given in US10195196B2, “1,4-disubstituted pyridazine analogs there of and methods for treating SMN-deficiency-related conditions” (NOVARTIS AG, priority 2012, dated 2019).

Test system: SMN protein
Experiment: cellular SMN ELISA (SMN protein elevation)
Type: cell-based
Conditions: myoblast cell line from SMNdelta7 mouse model, 24 hours treatment; for SMN activity Fold: fold activation over DMSO control
Method in brief: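 Readout is fold SMN elevation versus DMSO plus EC50, measured by anti-SMN capture ELISA with 450 nm absorbance. Lysates came from a myoblast line of the SMNdelta7 mouse model after 24 h compound exposure, with dose ranges of 20 nM–10 μM (condition 1) or 100 pM–10 μM (condition 2).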

[1] = ELISA condition 2: compound concentration 100 pM-10 uM
[2] = ELISA condition 1: compound concentration range 20 nM-10 uM

CN(c1ccc(-c2cc(-n3cc(CO)cn3)ccc2O)nn1)C1CC(C)(C)NC(C)(C)C1 [Example 37-1, 4-(4-(hydroxymethyl)-1H-pyrazol-1-yl)-2-(6-(methyl(2,2,6,6-tetramethylpiperidin-4-yl)amino)pyridazin-3-yl)phenol]
EC50 [1]: 118 nM
SMN activity Fold [1]: 2.59 Fold

CN(c1ccc(-c2ccc(-c3cccc4cn[nH]c34)cc2O)nn1)C1CC(C)(C)NC(C)(C)C1 [Example 33-1, 5-(1H-indazol-7-yl)-2-(6-(methyl(2,2,6,6-tetramethylpiperidin-4-yl)amino)pyridazin-3-yl)phenol]
EC50 [1]: 349 nM
SMN activity Fold [1]: 2.29 Fold

COc1cc(-c2ccc(-c3ccc(N(C)C4CC(C)(C)NC(C)(C)C4)nn3)c(O)c2)ccn1 [Example 41-8, 5-(2-methoxypyridin-4-yl)-2-(6-(methyl(2,2,6,6-tetramethylpiperidin-4-yl)amino)pyridazin-3-yl)phenol]
EC50 [1]: 62 nM
SMN activity Fold [1]: 3.18 Fold

CC1CN(c2ccc(-c3ccc(-n4cccn4)cc3O)nn2)CC(C)N1 (stereo not drawn) [Example 18-4, 2-[6-(3,5-dimethyl-piperazin-1-yl)-pyridazin-3-yl]-5-pyrazol-1-yl-phenol]
EC50 [1]: 388 nM
SMN activity Fold [1]: 2.84 Fold

CN(c1ccc(-c2cnc3ccccc3c2)nn1)C1CC(C)(C)NC(C)(C)C1 [Example 1-21, methyl-(6-quinolin-3-yl-pyridazin-3-yl)-(2,2,6,6-tetramethyl-piperidin-4-yl)-amine]
EC50 [2]: 630 nM
SMN activity Fold [2]: 2.49 Fold

CN1C(C)(C)CC(Nc2ccc(-c3ccc(-n4cccn4)cc3O)nn2)CC1(C)C [Example 18-14, 2-[6-(1,2,2,6,6-pentamethyl-piperidin-4-ylamino)-pyridazin-3-yl]-5-pyrazol-1-yl-phenol]
EC50 [2]: 17 nM
SMN activity Fold [2]: 2.62 Fold

CN(c1ccc(-c2cnc3ccccc3n2)nn1)C1CC(C)(C)NC(C)(C)C1 [Example 1-20, methyl-(6-quinoxalin-2-yl-pyridazin-3-yl)-(2,2,6,6-tetramethyl-piperidin-4-yl)-amine]
EC50 [2]: 470 nM
SMN activity Fold [2]: 3.04 Fold

CC1(C)CC(Oc2ccc(-c3ccc4cnccc4c3)nn2)CC(C)(C)N1 [Example 1-11, 6-(6-((2,2,6,6-tetramethylpiperidin-4-yl)oxy)pyridazin-3-yl)isoquinoline]
EC50 [1]: 3900 nM
SMN activity Fold [1]: 2.67 Fold

COc1cc(-c2cn[nH]c2)cc(O)c1-c1ccc(N(C)C2CC(C)(C)NC(C)(C)C2)nn1 [Example 25-2, 3-methoxy-2-(6-(methyl(2,2,6,6-tetramethylpiperidin-4-yl)amino)pyridazin-3-yl)-5-(1H-pyrazol-4-yl)phenol]
EC50 [1]: 8 nM
SMN activity Fold [1]: 3.44 Fold

Oc1cc(-n2cccn2)ccc1-c1ccc(N2CC3CNC(C3)C2)nn1 (stereo not drawn) [Example 18-8, 2-[6-(3,6-diaza-bicyclo[3.2.1]oct-3-yl)-pyridazin-3-yl]-5-pyrazol-1-yl-phenol]
EC50 [1]: 983 nM
SMN activity Fold [1]: 2.32 Fold

Oc1cc(-n2cccn2)ccc1-c1ccc(C2CCNCC2)nn1 [Example 19-2, 2-(6-piperidin-4-yl-pyridazin-3-yl)-5-pyrazol-1-yl-phenol]
EC50 [1]: 402 nM
SMN activity Fold [1]: 2.73 Fold

Oc1cc2ccccc2cc1-c1ccc(C2=CCNCC2)nn1 [Example 19-3, 3-(6-(1,2,3,6-tetra-hydropyridin-4-yl)pyridazin-3-yl)naphthalen-2-ol]
EC50 [1]: 155 nM
SMN activity Fold [1]: 2.19 Fold

CN(c1ccc(-c2c(O)cc(Cl)cc2F)nn1)C1CC(C)(C)NC(C)(C)C1 [Example 40-6, 5-chloro-3-fluoro-2-(6-(methyl(2,2,6,6-tetramethylpiperidin-4-yl)amino)pyridazin-3-yl)phenol]
EC50 [1]: 208 nM
SMN activity Fold [1]: 2.16 Fold

CN1C[C@@H]2CN(c3ccc(-c4ccc(-c5cn[nH]c5)cc4O)nn3)C[C@@H]2C1 [Example 43-3, 2-(6-((3aR,6aS)-5-methylhexahydropyrrolo[3,4-c]pyrrol-2(1H)-yl)pyridazin-3-yl)-5-(1H-pyrazol-4-yl)phenol]
EC50 [1]: 19 nM
SMN activity Fold [1]: 2.39 Fold

CN(c1ccc(-c2cc(-n3cccn3)ccc2O)nn1)C1CC(C)(C)NC(C)(C)C1 [Example 16-4, 2-(6-(methyl(2,2,6,6-tetramethylpiperidin-4-yl)amino)pyridazin-3-yl)-4-(1H-pyrazol-1-yl)phenol]
EC50 [1]: 94 nM
SMN activity Fold [1]: 2.71 Fold

CN(c1ccc(-c2ccc(-c3ccn4cncc4c3)cc2O)nn1)C1CC(C)(C)NC(C)(C)C1 [Example 41-18, 5-(imidazo[1,5-a]pyridin-7-yl)-2-(6-(methyl(2,2,6,6-tetramethylpiperidin-4-yl)amino)pyridazin-3-yl)phenol]
EC50 [1]: 17 nM
SMN activity Fold [1]: 2.44 Fold

CN(c1ccc(-c2ccccc2O)nn1)C1CC(C)(C)NC(C)(C)C1 [Example 1-7, 2-(6-(methyl-(2,2,6,6-tetra-methylpiperidin-4-yl)amino)-pyridazin-3-yl)phenol]
EC50 [2]: 1550 nM
SMN activity Fold [2]: 2.07 Fold

COc1cc(-c2cnn(C)c2)cc(O)c1-c1ccc(N(C)C2CC(C)(C)NC(C)(C)C2)nn1 [Example 26-1, 3-methoxy-2-(6-(methyl(2,2,6,6-tetramethylpiperidin-4-yl)amino)pyridazin-3-yl)-5-(1-methyl-1H-pyrazol-4-yl)phenol]
EC50 [1]: 14 nM
SMN activity Fold [1]: 3.18 Fold

CC1(C)CN(c2ccc(-c3ccc(-n4cccn4)cc3O)nn2)CCN1 [Example 18-15, 2-[6-(3,3-dimethyl-piperazin-1-yl)-pyridazin-3-yl]-5-pyrazol-1-yl-phenol]
EC50 [1]: 714 nM
SMN activity Fold [1]: 2.30 Fold

CN(c1ccc(-c2cc3ccc(CN4CCCC4)cc3cc2O)nn1)C1CC(C)(C)NC(C)(C)C1 [Example 24-3, 3-(6-(methyl(2,2,6,6-tetramethylpiperidin-4-yl)amino)pyridazin-3-yl)-7-(pyrrolidin-1-ylmethyl)naphthalen-2-ol]
EC50 [1]: 120 nM
SMN activity Fold [1]: 2.75 Fold

CN(c1ccc(-c2ccc3cnncc3c2)nn1)C1CC(C)(C)NC(C)(C)C1 [Example 1-22, N-methyl-6-(phthalazin-6-yl)-N-(2,2,6,6-tetramethylpiperidin-4-yl)pyridazin-3-amine]
EC50 [1]: 867 nM
SMN activity Fold [1]: 2.71 Fold

CN(c1ccc(-c2c(O)cc(-c3ccn(C)c(=O)c3)cc2OC(F)(F)F)nn1)C1CC(C)(C)NC(C)(C)C1 [Example 25-6, 4-(3-hydroxy-4-(6-(methyl(2,2,6,6-tetramethylpiperidin-4-yl)amino)pyridazin-3-yl)-5-(trifluoromethoxy)phenyl)-1-methylpyridin-2(1H)-one]
EC50 [1]: 107 nM
SMN activity Fold [1]: 2.16 Fold

CN(c1ccc(-c2ccc(-n3cc(C(N)=O)cn3)cc2O)nn1)C1CC(C)(C)NC(C)(C)C1 [Example 42-11, 1-(3-hydroxy-4-(6-(methyl(2,2,6,6-tetramethylpiperidin-4-yl)amino)pyridazin-3-yl)phenyl)-1H-pyrazole-4-carboxamide]
EC50 [1]: 239 nM
SMN activity Fold [1]: 3.37 Fold

CN(c1ccc(-c2cc3c(cc2O)-c2nc(N)sc2C3)nn1)C1CC(C)(C)NC(C)(C)C1 [Example 35-5, 2-amino-6-(6-(methyl(2,2,6,6-tetramethylpiperidin-4-yl)amino)pyridazin-3-yl)-8H-indeno[1,2-d]thiazol-5-ol]
EC50 [1]: 6 nM
SMN activity Fold [1]: 2.44 Fold
